Measured values: patent publication US6821508B2, “Composition and method for topical nail treatment” (Rutgers, the State University, priority 2001, dated 2004)
Values after ≈ are worked out from the molar mass of the structure shown. Read-outs that look alike come from different tables or passages of the source.

Tests used:
[1] = Enhancer screening: tritiated water permeation through nails in Franz-type diffusion cells (toenails); settings: Table 2; pyrithione gels, each relative to its own control
Method: Frozen human toenails and fingernails were obtained from tissue banks based on a protocol for size, patient history, etc. The nails were thawed at room temperature for 1 hour, and the adhering skin and tissue was removed with a pair of scissors and a scalpel. The nails were cleaned by rinsing them in a mild detergent solution (1% solution of a standard liquid soap containing sodium and potassium dodecyl benzene sulfonate and ammonium laureth sulfate), followed by two rinses in deionized water (DI water). The thickness of the nails was measured with a micrometer, and the nails were immersed in 10 mL of DI water for 24 hours just prior to use to allow complete hydration and bring all the nails to the same condition for valid comparisons (Kobayashi, et al. (1998) Chem. Pharm. Bull. 46(11):1797-1802; Walters, et al. (1981) J Invest Dermatol 76:76-79; Mertin and Lippold (1997) J Pharm Pharmacol 49:30-34).
Franz-type diffusion cells (Crown Glass Co., Somerville, N.J.), specially designed to hold the human nail were used (Malhotra and Zatz (2000) J Cosmet Sci 51:367-377). The cleaned, trimmed nails were clamped into the diffusion cells. […]
All gels were prepared using the same general procedure. […] The apparent pH of the gels was measured. Prior to use, three 10 μL aliquots of the gel were analyzed by Liquid Scintillation Counting (LSC) to validate uniformity of spiking. […]

[2] = 25° C.; Hoogerheide and Wyka (1982); cited from earlier work
[3] = Solubility of clotrimazole in PEG-20-oleyl ether receptor fluid (HPLC); format: physicochemical; settings: aqueous PEG-20-oleyl ether surfactant solution, 37 °C, aqueous with cosolvent or surfactant or cyclodextrin, thermodynamic from solid, read-out: Solubility of clotrimazole (Mean ± SEM, n = 3)
Method: Aqueous solutions of PEG-20-oleyl ether in concentrations of 0.5%, 1%, 2%, and 5% were prepared. Excess clotrimazole was added to vials containing 10 mL of surfactant solution. For each surfactant concentration, the solubility determination was done in triplicate. The vials were agitated in a mechanical shaker bath (Precision Scientific, Chicago, Ill.) maintained at 37° C. for 24 hours. The vials were then centrifuged (Fisher Scientific, Springfield, N.J.) at 4600 rpm for 30 minutes at 25° C. The supernatant was analyzed for drug concentration by High Performance Liquid Chromatography (HPLC).
The HPLC conditions were adapted from well known methods, for example Hoogerheide, et al. ((1981) J Assoc Off Anal Chem 64:864-869) and Rifai, et al. ((1995) Clin Chem 41:387-391). The HPLC analysis was performed using a Waters 600E System Controller Pump, Waters 717 Autoinjector, Waters 486 Tunable Absorbance Detector, and Waters 700 Data Module Integrator. A reverse-phase C-18 column (Waters Novapak, 3.9×150 mm, 4μ) was used. The mobile phase consisted of a mixture of 0.025M dibasic potassium phosphate (pH adjusted to approximately 6.3 with o-phosphoric acid) and HPLC grade methanol in the ratio 1:3. A flow rate of 1 mL/minute was maintained and the detector wavelength was set at 254 nm.
Standard solutions of clotrimazole in mobile phase were prepared in the concentration range of 5-200 μg/mL. The injection volume of standard and sample solutions was 20 μL.
The chromatography conditions yielded a linear standard curve (R^2=0.9995). From the standard curve, the solubility of clotrimazole in different concentrations of PEG-20-oleyl ether was quantitatively determined.

Row | Molecule | EFwater [1] | solubility in alcohol [2] | solubility in water [2] | solubility at 24 h ([3]; 0.5% PEG-20-oleyl ether in water) | solubility at 24 h ([3]; 1.0% PEG-20-oleyl ether in water) | solubility at 24 h ([3]; 2.0% PEG-20-oleyl ether in water) | solubility at 24 h ([3]; 5.0% PEG-20-oleyl ether in water)
1 | [Na+].[O-][n+]1ccccc1[S-] [NaPTO, sodium pyrithione] | ~1 | – | – | – | – | – | –
2 | Clc1ccccc1C(c1ccccc1)(c1ccccc1)n1ccnc1 [clotrimazole] | – | 95000 µg/mL (≈ 275000 µM) | < 10 µg/mL | 75.2 µg/mL (≈ 218 µM) | 191 µg/mL (≈ 553 µM) | 499 µg/mL (≈ 1450 µM) | 1350 µg/mL (≈ 3930 µM)
3 | zinc pyrithione [ZnPTO] | 1.13 | – | – | – | – | – | –
